Reference: patent US20060069132A1, “Azolecarboxamide herbicides” (priority 2004, published 2006)

Legend:
barnyardgrass [1] = test: Test B pre-/postemergence herbicide test; assay type: in vivo, Echinochloa crus-galli
Method in brief: (§1)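 Test chemicals in a non-phytotoxic solvent mixture with surfactant were applied preemergence to seeded species and postemergence to plants 2-18 cm tall (1- to 4-leaf stage); rice and barnyardgrass were also tested in a flooded paddy at the 2-leaf stage. Visual rating versus controls after 13-15 days in greenhouse, scale 0 (no effect) to 100 (complete control).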

Surinam grass = test: Test B pre-/postemergence herbicide test; assay type: in vivo, Urochloa decumbens
Method in brief: (§2)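 Pre: seeds sown, then sprayed. Post: 1–4-leaf plants (2–18 cm) sprayed at the same time. Paddy: flooded, treated at 2-leaf stage. Formulation: non-phytotoxic solvent with surfactant. Greenhouse 13–15 days; visual 0–100 score relative to controls.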

cocklebur = test: Test B pre-/postemergence herbicide test; assay type: in vivo, Xanthium strumarium
Method in brief: as §1

corn = test: Test B pre-/postemergence herbicide test; assay type: in vivo, Zea mays
Method in brief: as §2

large crabgrass = test: Test B pre-/postemergence herbicide test; assay type: in vivo, Digitaria sanguinalis
Method in brief: as §2

giant foxtail = test: Test B pre-/postemergence herbicide test; assay type: in vivo, Setaria faberi
Method in brief: as §2

lambsquarters = test: Test B pre-/postemergence herbicide test; assay type: in vivo, Chenopodium album
Method in brief: as §2

morningglory = test: Test B pre-/postemergence herbicide test; assay type: in vivo, Ipomoea coccinea
Method in brief: as §1

pigweed = test: Test B pre-/postemergence herbicide test; assay type: in vivo, Amaranthus retroflexus
Method in brief: as §2

velvetleaf = test: Test B pre-/postemergence herbicide test; assay type: in vivo, Abutilon theophrasti
Method in brief: as §2

blackgrass = test: Test B postemergence herbicide test; assay type: in vivo, Alopecurus myosuroides
Method in brief: (§3)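 Paddy species grown to the 2-leaf stage under flooding; blackgrass sprayed postemergence at 2–18 cm (1- to 4-leaf stage). Plants kept in a greenhouse for 13 to 15 days, then visually rated against controls on 0 (no effect) to 100 (complete control).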

wheat = test: Test B postemergence herbicide test; assay type: in vivo, Triticum aestivum; parameters: key to Wheat plant response rating: 0 = no effect, 100 = complete control
Method in brief: (§4)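 Greenhouse test; postemergence application to plants at 1–4 leaves (2–18 cm); paddy species at 2 leaves; evaluated visually vs controls at 13–15 days; scale 0–100 (100 = complete control).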

wild oat = test: Test B postemergence herbicide test; assay type: in vivo, Avena fatua
Method in brief: as §4

rice [2] = test: Test B flooded paddy test; assay type: in vivo, Oryza sativa; settings: scale 0 to 100 (0 no effect, 100 complete control)
Method in brief: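 Plants grow to 1- to 4-leaf stage (2–18 cm) for postemergence spraying, or to 2-leaf stage for the paddy test. Formulated compound is applied. Greenhouse holding lasts 13–15 days. Response is scored visually relative to controls, 0 no effect to 100 complete control; a dash means no result.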

[3] = tested on: small flower umbrella sedge; test: Test B flooded paddy test; assay type: in vivo, Cyperus difformis; settings: scale 0 to 100 (0 no effect, 100 complete control)
Method in brief: as §3

ducksalad [4] = test: Test B flooded paddy test; assay type: in vivo, Heteranthera limosa; settings: scale 0 to 100 (0 no effect, 100 complete control)
Method in brief: as §3

barnyardgrass [5] = test: Test B flooded paddy test; assay type: in vivo, Echinochloa crus-galli; settings: scale 0 to 100 (0 no effect, 100 complete control)
Method in brief: as §3

rice [6] = test: Test C flooded paddy test; assay type: in vivo, Oryza sativa
Procedure: (§5) At the same time, plants selected from these crop and weed species and also winter barley (Hordeum vulgare L.), blackgrass (Alopecurus myosuroides Huds.), canarygrass (Phalaris minor Retz.), chickweed (Stellaria media (L.) Vill.), downy bromegrass (Bromus tectorum L.), green foxtail (Setaria viridis (L.) Beauv.), Italian ryegrass (Lolium multiflorum Lam.), wheat (Triticum aestivum L.), wild oat (Avenafatua L.) and windgrass (Apera spica-venti (L.) Beauv.) were treated with postemergence applications of some of the test chemicals formulated in the same manner. Plants ranged in height from 2 to 18 cm (1- to 4-leaf stage) for postemergence treatments. Plant species in the flooded paddy test consisted of rice (Oryza sativa), smallflower umbrella sedge (Cyperus difformis L.), ducksalad (Heteranthera limosa (Sw.) Willd.) and barnyardgrass (Echinochloa crus-galli (L.) Beauv.) grown to the 2-leaf stage for testing. Treated plants and controls were maintained in a greenhouse for 12 to 14 days, after which time all species were compared to controls and visually evaluated. Plant response ratings, summarized in Table C, are based on a scale of 0 to 100 where 0 is no effect and 100 is complete control. A dash (-) response means no test result.

[7] = tested on: smallflower umbrella sedge; test: Test C flooded paddy test; assay type: in vivo, Cyperus difformis
Procedure: as §5

ducksalad [8] = test: Test C flooded paddy test; assay type: in vivo, Heteranthera limosa
Procedure: as §5

barnyardgrass [9] = test: Test C flooded paddy test; assay type: in vivo, Echinochloa crus-galli
Procedure: as §5

[10] = 125 g ai/ha, 0 is no effect, 100 is complete control, preemergence
[11] = 125 g ai/ha, visual rating, scale 0 (no effect) to 100 (complete control), postemergence
[12] = 500 g ai/ha, visual rating, 0 = no effect, 100 = complete control, preemergence
[13] = postemergence, 500 g ai/ha, scale 0 to 100, 0 is no effect, 100 is complete control
[14] = 125 g ai/ha, scale 0 to 100 (0 no effect, 100 complete control)
[15] = 250 g ai/ha, scale of 0 to 100, 0 is no effect, 100 is complete control
[16] = 500 g ai/ha, visual rating after 12 to 14 days, scale 0 to 100 (0 no effect, 100 complete control)
[17] = Postemergence, 125 g ai/ha, scale 0 (no effect) to 100 (complete control)
[18] = Postemergence, 500 g ai/ha, scale 0 (no effect) to 100 (complete control)
[19] = postemergence, 125 g ai/ha, scale 0 to 100
[20] = 500 g ai/ha, scale 0 to 100, 0 no effect, 100 complete control, preemergence

CCOC(=O)c1ccc(F)c(NC(=O)C2CN(C(C)(C)C)N=C2CC)c1 (racemic) [Compound 335]
Plant response rating (0 to 100 scale), Barnyardgrass (barnyardgrass [1]; [10]): 50
Barnyardgrass plant response rating (barnyardgrass [1]; [11]): 0
Plant response rating, Barnyardgrass (barnyardgrass [1]; [12]): 60
Barnyardgrass plant response rating (barnyardgrass [1]; [13]): 50
Plant response rating (0 to 100 scale), Surinam Grass (Surinam grass; [10]): 30
Surinam Grass plant response rating (Surinam grass; [11]): 10
Plant response rating, Surinam Grass (Surinam grass; [12]): 40
Surinam Grass plant response rating (Surinam grass; [13]): 30
Plant response rating (0 to 100 scale), Cocklebur (cocklebur; [10]): 0
Cocklebur plant response rating (cocklebur; [11]): 10
Plant response rating, Cocklebur (cocklebur; [12]): 10
Cocklebur plant response rating (cocklebur; [13]): 70
Plant response rating (0 to 100 scale), Corn (corn; [10]): 30
Corn plant response rating (corn; [11]): 10
Plant response rating, Corn (corn; [12]): 50
Corn plant response rating (corn; [13]): 20
Plant response rating (0 to 100 scale), Crabgrass, Large (large crabgrass; [10]): 50
Crabgrass, Large plant response rating (large crabgrass; [11]): 10
Plant response rating, Crabgrass, Large (large crabgrass; [12]): 100
Crabgrass, Large plant response rating (large crabgrass; [13]): 40
Plant response rating (0 to 100 scale), Foxtail, Giant (giant foxtail; [10]): 60
Foxtail, Giant plant response rating (giant foxtail; [11]): 20
Plant response rating, Foxtail, Giant (giant foxtail; [12]): 90
Foxtail, Giant plant response rating (giant foxtail; [13]): 40
Plant response rating (0 to 100 scale), Lambsquarters (lambsquarters; [10]): 0
Lambsquarters plant response rating (lambsquarters; [11]): 10
Plant response rating, Lambsquarters (lambsquarters; [12]): 10
Lambsquarters plant response rating (lambsquarters; [13]): 30
Plant response rating (0 to 100 scale), Morningglory (morningglory; [10]): 0
Morningglory plant response rating (morningglory; [11]): 10
Plant response rating, Morningglory (morningglory; [12]): 10
Morningglory plant response rating (morningglory; [13]): 40
Plant response rating (0 to 100 scale), Pigweed (pigweed; [10]): 0
Pigweed plant response rating (pigweed; [11]): 20
Plant response rating, Pigweed (pigweed; [12]): 10
Pigweed plant response rating (pigweed; [13]): 70
Plant response rating (0 to 100 scale), Velvetleaf (velvetleaf; [10]): 40
Velvetleaf plant response rating (velvetleaf; [11]): 30
Velvetleaf plant response rating (velvetleaf; [13]): 60
Blackgrass plant response rating (blackgrass; [11]): 10
Blackgrass plant response rating (blackgrass; [13]): 30
Wheat plant response rating (wheat; [11]): 10
Wheat plant response rating (wheat; [13]): 20
Oat, Wild plant response rating (wild oat; [11]): 20
Oat, Wild plant response rating (wild oat; [13]): 40
Rice plant response rating (rice [2]; 1000 g ai/ha): 70
Sedge, Umbrella plant response rating ([3]; 1000 g ai/ha): 80
Ducksalad plant response rating (ducksalad [4]; 1000 g ai/ha): 90
Barnyardgrass plant response rating (barnyardgrass [5]; 1000 g ai/ha): 60
Rice plant response rating (rice [6]; 62 g ai/ha, scale 0 to 100): 25
Rice plant response rating (rice [6]; [14]): 25
Rice plant response rating (rice [6]; [15]): 55
Plant response rating, Rice (rice [6]; [16]): 55
Sedge, Umbrella plant response rating ([7]; 62 g ai/ha, scale 0 to 100): 45
Sedge, Umbrella plant response rating [7, 14]: 85
Sedge, Umbrella plant response rating [7, 15]: 90
Plant response rating, Sedge, Umbrella [7, 16]: 95
Ducksalad plant response rating (ducksalad [8]; 62 g ai/ha, scale 0 to 100): 0
Ducksalad plant response rating (ducksalad [8]; [14]): 35
Ducksalad plant response rating (ducksalad [8]; [15]): 50
Plant response rating, Ducksalad (ducksalad [8]; [16]): 70
Barnyardgrass plant response rating (barnyardgrass [9]; 62 g ai/ha, scale 0 to 100 (0 no effect, 100 complete control)): 10
Barnyardgrass plant response rating (barnyardgrass [9]; [14]): 25
Barnyardgrass plant response rating (barnyardgrass [9]; [15]): 40
Plant response rating, Barnyardgrass (barnyardgrass [9]; [16]): 65

C=CCNC(=O)c1ccc(F)c(N(C(C)=O)C(=O)c2cc(C(C)(C)C)nn2CC)c1 [Compound 443]
Barnyardgrass plant response rating (barnyardgrass [1]; [17]): 20
Barnyardgrass plant response rating (barnyardgrass [1]; [18]): 30
Surinam Grass plant response rating (Surinam grass; [18]): 20
Surinam Grass plant response rating (Surinam grass; [19]): 20
Cocklebur plant response rating (cocklebur; [18]): 80
Cocklebur plant response rating (cocklebur; [19]): 50
Corn plant response rating (corn; [18]): 20
Corn plant response rating (corn; [19]): 20
Crabgrass, Large plant response rating (large crabgrass; [18]): 30
Crabgrass, Large plant response rating (large crabgrass; [19]): 20
Foxtail, Giant plant response rating (giant foxtail; [18]): 40
Foxtail, Giant plant response rating (giant foxtail; [19]): 30
Lambsquarters plant response rating (lambsquarters; [18]): 80
Lambsquarters plant response rating (lambsquarters; [19]): 70
Morningglory plant response rating (morningglory; [18]): 60
Morningglory plant response rating (morningglory; [19]): 50
Pigweed plant response rating (pigweed; [18]): 80
Pigweed plant response rating (pigweed; [19]): 60
Velvetleaf plant response rating (velvetleaf; [18]): 50
Velvetleaf plant response rating (velvetleaf; [19]): 50
Blackgrass plant response rating (blackgrass; [18]): 40
Blackgrass plant response rating (blackgrass; [19]): 30
Wheat plant response rating (wheat; [20]): 100
Wheat plant response rating (wheat; [18]): 50
Wheat plant response rating (wheat; [19]): 40
Oat, Wild plant response rating (wild oat; [18]): 60
Oat, Wild plant response rating (wild oat; [19]): 40
Rice plant response rating (rice [2]; 125 g ai/ha): 70
Sedge, Umbrella plant response rating ([3]; 125 g ai/ha): 80
Ducksalad plant response rating (ducksalad [4]; 125 g ai/ha): 70
Barnyardgrass plant response rating (barnyardgrass [5]; 125 g ai/ha): 80

C=Cc1nn(C(C)(C)C)nc1C(=O)Nc1cccc(C(=O)N(C)C)c1 [Compound 445]
Barnyardgrass plant response rating (barnyardgrass [1]; [17]): 30
Barnyardgrass plant response rating (barnyardgrass [1]; [18]): 40
Surinam Grass plant response rating (Surinam grass; [18]): 30
Surinam Grass plant response rating (Surinam grass; [19]): 20
Cocklebur plant response rating (cocklebur; [18]): 80
Cocklebur plant response rating (cocklebur; [19]): 40
Corn plant response rating (corn; [18]): 40
Corn plant response rating (corn; [19]): 20
Crabgrass, Large plant response rating (large crabgrass; [18]): 40
Crabgrass, Large plant response rating (large crabgrass; [19]): 30
Foxtail, Giant plant response rating (giant foxtail; [18]): 30
Foxtail, Giant plant response rating (giant foxtail; [19]): 30
Lambsquarters plant response rating (lambsquarters; [18]): 80
Lambsquarters plant response rating (lambsquarters; [19]): 60
Morningglory plant response rating (morningglory; [18]): 80
Morningglory plant response rating (morningglory; [19]): 60
Pigweed plant response rating (pigweed; [18]): 60
Pigweed plant response rating (pigweed; [19]): 50
Velvetleaf plant response rating (velvetleaf; [18]): 50
Velvetleaf plant response rating (velvetleaf; [19]): 50
Blackgrass plant response rating (blackgrass; [18]): 50
Blackgrass plant response rating (blackgrass; [19]): 40
Wheat plant response rating (wheat; [20]): 100
Wheat plant response rating (wheat; [18]): 50
Wheat plant response rating (wheat; [19]): 30
Oat, Wild plant response rating (wild oat; [18]): 60
Oat, Wild plant response rating (wild oat; [19]): 40
Rice plant response rating (rice [2]; 125 g ai/ha): 80
Sedge, Umbrella plant response rating ([3]; 125 g ai/ha): 80
Ducksalad plant response rating (ducksalad [4]; 125 g ai/ha): 80
Barnyardgrass plant response rating (barnyardgrass [5]; 125 g ai/ha): 90
